From publication PMC4503950, “EGCG reverses human neutrophil elastase-induced migration in A549 cells by directly binding to HNE and by regulating α1-AT” (Scientific Reports, 2015)

Target: T1, human neutrophil elastase (HNE) (Homo sapiens, UniProt P08246)
T1 construct: gene ELANE; Recombinant HNE protein (molecular mass, 25 kDa)
T1 sequence (P08246 30-247): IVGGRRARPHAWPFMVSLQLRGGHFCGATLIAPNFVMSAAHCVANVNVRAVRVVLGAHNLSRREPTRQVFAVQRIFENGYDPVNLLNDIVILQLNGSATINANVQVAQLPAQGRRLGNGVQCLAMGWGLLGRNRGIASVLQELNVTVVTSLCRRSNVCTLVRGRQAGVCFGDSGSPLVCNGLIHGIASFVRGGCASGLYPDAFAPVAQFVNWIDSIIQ
Assay: SPR (Biacore […], HNE immobilized on CM5 chip, […] Langmuir fit); also enzyme inhibition with IC50 […]
Type: binding

Question: `O=C(OC1Cc2c(O)cc(O)cc2OC1c1cc(O)c(O)c(O)c1)c1cc(O)c(O)c(O)c1` (stereo not shown) [EGCG] was tested. Which Kd did it give?
Answer: 41.4 µM
